Test results reported in patent publication US6841533B1, “Conformationally constrained backbone cyclized interleukin-6 antagonists” (Peptor Limited, priority 1995, dated 2005).
Numbered stars: 1 amine (or outer) side, 2 acyl side, 3 side chain; on linkers, the order of the positions; unused ones are H or OH. Bridge positions count the residues as written; N and C are the ends. Square brackets hold non-standard residues; d marks the D form. Peptide text beside a SMILES is read from it. Ala(Nα-(CH2)3CO) = C[C@@H](C(=O)[*:2])N(CCCC(=O)[*:3])[*:1]; Ala(Nα-(CH2)3NH) = C[C@@H](C(=O)[*:2])N(CCCN[*:3])[*:1]

What was measured:
[1] = test system: IL-6 mediated acute-phase response; experiment: IL-6 mediated acute-phase response (turpentine model); format: in vivo, mice; settings: for Mean weight loss % / Mean weight loss grams: mice, turpentine, 1 or 10 mg/kg of peptide
Excerpt: The objective was to establish a simple first-line in-vivo model, for testing the activity of IL-6 inhibitors. The turpentine model was chosen based on the principal role that IL-6 plays in this inflammatory response.
Systemic and localized inflammation elicit a general reaction in the organism, known as the acute phase response, which includes fever, loss of body weight, hypoglycemia, and changes in the serum levels of several plasma proteins produced by the liver. IL-6 is an important mediator of the acute-phase reaction (see Heinrich et.al., Biochemistry J. 1 265:621, 1990 for a comprehensive review), together with IL-1 and TNF-α. It has been shown previously that sterile tissue damage caused by injection of turpentine induces an acute-phase reaction, and that IL-6 is an essential mediator of this response (Rokita et.al., Cytokine 5:454, 1993).
IL-6 knock-out (-/-) and matched wild-type (C57/Black; CB) mice were used. Sterile tissue damage was induced by subcutaneous injection of turpentine, 0.1 ml, into both hind limbs. IL-6 was determined in the serum by ELISA (QuantikineM, R&D). For liver acute-phase proteins, Fibrinogen was determined in citrated plasma, by the calcium method.
PTR 5045 (SEQ ID NO:75) was tested in this model in compare to the non-relevant control peptide PTR 4041 (SEQ ID NO:33) (Lys-GlyC2-Leu-Ile-Gln-Leu-Phe-GlyN3-Lys-Lys-NH2).

[2] = Metabolic stability in vitro against renal homogenate; format: in vitro ADME
Experimental: The special feature of the novel backbone cyclic peptide analogs is their metabolic stability as tested in vitro against degradation of the most aggressive enzyme mixture in the body (e.g., renal homogenate). PTR 5045 is stable under these conditions for up to 24 hours.

B16.F10.9 melanoma cells = settings: 200 ng/ml IL-6 and 125 ng/ml sIL-6R, three days, FIG. 2
Excerpt: The F10.9 sub-line of B16 (murine melanoma) expresses gp130 but not IL-6R. Addition of human IL-6 and human IL-6R, or a chimera of IL-6/IL-6R results in differentiation which is associated with growth arrest of the cells. Inhibition of IL-6 results in continued growth. Since the end point of this assay is cell growth rather than cell death, this assay system was used primarily in order to differentiate between suspected toxic effects observed on B9 or T1165 cells, and true inhibition of IL-6 activity.
Evaluation of the results in this assay is possible using two methods. One method uses vital dyes for monitoring cell growth. The second method comprises visual observation of the cell morphology and establishing a cut off point based on the following observations:
Cells which are not treated with IL-6 create a monolayer that covers almost all the surface area. Treatment with IL-6 causes growth arrest and a morphological change: the cells become very narrow and elongated as compared to the more spread out shape of the non-treated cells.
Peptides were added to B16.F10.9 melanoma cells in the presence of 200 ng/ml IL-6 and 125 ng/ml sIL-6R. Incubation for three days.

A375 cells = experiment: Bioassay using A375 cells, cytokines other than IL-6; format: cell-based, human; settings: maximal inhibitory activity of IL-6 on A375 cells = 100%
Excerpt: The A375 are human melanoma cells. IL-6 induces differentiation of A375 cells which is associated with growth arrest similar to the phenomenon observed with the B16F10.9 murine melanoma cells. Thus, inhibition of IL-6 results in continued growth of the cells which is easily quantifiable. In such case toxicity of peptides would register as a false negative rather than false positive. This conditions is preferable during screening process. Second, since these are human cells, the molecules involved in the bio-response, i.e. IL-6, IL-6R and gp130 are all of human origin thus ensuring authenticity of the tested peptide bioactivity. Another advantage of the A375 cells is their ability to be induced by other cytokines that share the gp130 signal transducer, i.e. leukemia inhibitory factor (LIF) and oncostatine M (OSM). […] The availability of this assay system, allows us to test, the specificity of our IL-6 inhibitory peptides vs. other cytokines of the family, in an array of assays all using a single cell line. Assay performance is described in Savino et al. (ibid).

[3] = biological target: leukocyte inhibitory factor receptor (LIF-R); experiment: cell-based or functional assay

Question: Which results are given for CC(C)C[C@@H]1NC(=O)[C@H](C)N(C(=O)[C@H](Cc2ccccc2)NC(=O)[C@@H](CCCNC(=N)N)NC(=O)[C@H](CCCCN)NC(=O)[C@H](CCCNC(=N)N)NC(=O)[C@@H](N)Cc2c[nH]c3ccccc23)CCCC(=O)NCCCN([C@@H](C)C(N)=O)C(=O)[C@@H](Cc2ccc(O)cc2)NC(=O)[C@H](CCCNC(=N)N)NC1=O [PTR 5045, Trp-Arg-Lys-(D)Arg-Phe-AlaC3-Leu-Arg-(D)Tyr-AlaN3-NH2] (H-WRK[dR]F[Ala(Nα-(CH2)3CO)]LR[dY][Ala(Nα-(CH2)3NH)]-NH2; lactam 6-10)?
Answer: Mean weight loss % [1]: −3.93%; Mean weight loss grams [1]: −1.35 grams; reduction of the effect mediated by IL-6 on body weight during acute inflammation ([1]; versus control peptide PTR 4041): reduces by about half; time stable against degradation by renal homogenate [2]: up to 24 hours; concentration that fully blocks IL-6 activity (B16.F10.9 melanoma cells): about 250 nM

Question: With “Lys-GlyC2-Leu-Ile-Gln-Leu-Phe-GlyN3-Lys-Lys-NH2 (KGLIQLFGKK; not fully specified; backbone cyclization, C-amide; listed as Homo sapiens) [PTR 4041, reference compound]” as the molecule, how does the “Mean weight loss %” value [1] read?
Answer: −7.3%

Question: What about the “Mean weight loss grams” value [1] of the same molecule?
Answer: −2.51 grams

Question: And the “concentration that fully blocks IL-6 activity” value (B16.F10.9 melanoma cells)?
Answer: not active

Question: Which results are given for “LIF: leukemia inhibitory factor, cytokine that shares the gp130 signal transducer”?
Answer: % Inhibition (relative to IL-6) (A375 cells; cytokine 1 ng/ml): 1%; % Inhibition (relative to IL-6) (A375 cells; cytokine 10 ng/ml): 2%

Question: Which % Inhibition (relative to IL-6) of A375 cells, LIF + LIFR at 10 ng/ml [3] does the source give for “leukemia inhibitory factor (LIF) (ligand)” here?
Answer: 45%

B1: OSM: oncostatine M, cytokine that shares the gp130 signal transducer (protein, UniProt P13725 26-221, looked up)
Oncostatin-M: AAIGSCSKEYRVLLGQLQKQTDLMQDTSRLLDPYIRIQGLDVPKLREHCRERPGAFPSEETLRGLGRRGFLQTLNATLGCVLHRLADLEQRLPKAQDLERSGLNIEDLEKLQMARPNILGLRNNIYCMAQLLDNSDTAEPTKAGRGASQPPTPTPASDAFQRKLEGCRFLHGYHRFMHSVGRVFSKWGESPNRSRR
Question: With B1 as the molecule, how does the “% Inhibition (relative to IL-6)” value (A375 cells; cytokine 1 ng/ml) read?
Answer: 94%

Question: What about the “% Inhibition (relative to IL-6)” value (A375 cells; cytokine 10 ng/ml) of the same molecule?
Answer: 141%
